Reference: US8263649B2, “Benzofuran type derivatives, a composition comprising the same for treating or preventing cognitive dysfunction and the use thereof” (Medifron DBT Co., Ltd., priority 2006, dated 2012)

What was measured:
[1] = system: HT22 mouse neuronal cell line treated with aggregated beta amyloid 25-35; assay: Inhibition test of beta amyloid toxicity (MTT); type: cell-based; settings: HT22 cells, 25 μm aggregated beta amyloid 25-35, 18 hours
Experimental: To determine the inhibitory activity of the compounds prepared in Examples on beta-amyloid toxicity, following test was performed according to the procedure disclosed in the literature (Gillardon, F. et al., Brain Research, 706(1), pp. 169-172, 1996).
HT22 mouse neuronal cell line was incubated in DMEM (Dulbecco's Modified Eagle's Medium, Gibco-BRL) medium supplemented with 10% FBS (Fetal Bovine Serum, Hyclone) and 1% penicillin/streptomycin (Sigma Co.). Prior to test, HT22 cell was incubated on 96 well plates with a density of 5×10^3 cell/well and further incubated in serum free DMEM medium for 1 hour before the treatment of test sample. Various concentration of compounds prepared in Examples used as a test sample was added thereto and incubated for 1 hour. Aggregated beta amyloid 25-35 (US peptide) was treated thereto to the concentration of 25 μm and incubated for 18 hours to induce cell necrosis. 5 mg/ml of MTT (3-(4,5-dimethyl-2-thiazolyl)-2,5-diphenyl-2H-tetrazolium bromide) solution was added each well with 15 μl/well and the well was incubated for 4 hours. Dissolving buffer solution (10% SDS, 50% dimethyl formamide, pH 4.7) was added to each well with 100 μl/well and reacted for overnight. 18 hours after the reaction, the absorbance of solution was determined by microplate reader (SAFIRE, TECAN) at 570 nm/630 nm wavelength (Gillardon, F. et al., Brain Research, 706(1) pp 169-172, 1996).

[2] = target: T1, beta amyloid 1-42 (Homo sapiens, UniProt P05067); assay: Inhibition test of beta amyloid aggregation (Thioflavin T fluorescence); type: biochemical; settings: FIG. 1
T1 construct: Synthetic beta amyloid 1-42 (BACHEM); purchased BACHEM; host or cells: synthetic peptide
Experimental: Synthetic beta amyloid 1-42 (BACHEM) was dissolved in DMSO in order to 250 μm solution and diluted with PBS into 1/10 on fluorescent black plate to induce aggregation. By comparing with inhibition activity of the tanshinone compounds prepared in Example 1 on beta amyloid aggregation, the test sample showing more than 50% inhibition activity at 10 μg/ml was chosen to use and added to react for 1 hour at room temperature. ThT (Thioflavin T) was diluted with 50 mM glycine buffer solution and the diluted solution was added to each well by 150 μl/well. The absorbance was determined by microplate reader (SAFIRE, TECAN) at 450 nm excitation wavelength/480 nm emission wavelength and the inhibition activity of the test sample on beta amyloid aggregation was transformed into IC50.

T1 sequence (P05067 672-713): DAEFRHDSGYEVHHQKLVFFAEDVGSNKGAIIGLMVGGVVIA

`COc1ccc(-c2oc3ccc(CC(=O)N4CCN(Cc5ccccc5)CC4)cc3c2SC)cc1OC` gave a melting point of 70 °C.

For `COCCc1ccc2oc(-c3ccc(OCOC)c(OC)c3)c(SC)c2c1` [Compound 14a, 5-(2-methoxy-ethyl)-2-(3-methoxy-4-methoxymethoxy-phenyl)-3-methylsulfanyl-benzofuran], the melting point was 70 °C.

In the case of `COCCc1ccc2oc(-c3ccc(O)c(OC)c3)c(SC)c2c1` [Compound 15a, 2-methoxy-4-[5-(2-methoxy-ethyl)-3-methylsulfanyl-benzofuran-2-yl]-phenol], the “inhibition effect on beta-amyloid toxicity” value [1] is reported as “potent inhibition effect”, the melting point is reported as 67 °C and the “inhibitory effect on the aggregation of beta amyloid” value [2] is reported as “potent inhibition effect”.

With `COCCCc1ccc2oc(-c3ccc(O)c(OC)c3)c(SC)c2c1` [Compound 15b, 2-methoxy-4-[5-(3-methoxy-propyl)-3-methylsulfanyl-benzofuran-2yl]-phenol] the “inhibition effect on beta-amyloid toxicity” value [1] was “potent inhibition effect” and the “inhibitory effect on the aggregation of beta amyloid” value [2] was “potent inhibition effect”.

`COCCc1ccc2oc(-c3ccc(O)c(OC)c3)cc2c1` [Compound 16a, 2-methoxy-4-[5-(2-methoxy-ethyl)-benzofuran-2yl]-phenol] showed a melting point of 180 °C.

In the case of `COCCc1ccc2oc(-c3ccc(OC)c(OC)c3)c(SC)c2c1` [Compound 17a, 2-(3,4-dimethoxy-phenyl)-5-(2-methoxy-ethyl)-3-methylsulfanyl-benzofuran], the melting point is reported as 61 °C.

Compound `COCCc1ccc2oc(-c3ccc(OC)c(OC)c3)cc2c1` [Compound 18a, 2-(3,4-dimethoxy-phenyl)-5-(2-methoxy-ethyl)-benzofuran] has a melting point of 81 °C.

`COC(=O)Cc1ccc2oc(-c3ccc(OC)c(OC)c3)c(SC)c2c1` [Compound 31a, [2-(3,4-dimethoxy-phenyl)-3-(methylsulfanyl)-benzofuran-5-yl)acetic acid methyl ester] showed a melting point of 91 °C.

In the case of `COC(=O)Cc1ccc2oc(-c3ccc(OC)c(OC)c3)cc2c1` [Compound 32a, [2-(3,4-dimethoxyphenyl)-benzofuran-5-yl]acetic acid methyl ester], the melting point is reported as 119 °C.

`COc1ccc(-c2oc3ccc(CC(=O)O)cc3c2SC)cc1OC` [Compound 33a, [2-(3,4-dimethoxy-phenyl)-3-methylsulfanyl-benzofuran-5-yl]-acetic acid] gave a melting point of 165 °C.

With `COc1ccc(-c2cc3cc(CC(=O)O)ccc3o2)cc1OC` [Compound 34a, [2-(3,4-dimethoxy-phenyl)-benzofuran-5-yl]-acetic acid] the melting point was 202 °C.

With `COc1ccc(-c2oc3ccc(CC(=O)N4CCN(c5ccccc5)CC4)cc3c2SC)cc1OC` [Compound 37a, 2-[2-(3,4-dimethoxy-phenyl)-3-methylsulfanyl-benzofuran-5-yl)-1-(4-phenyl-piperazin-1-yl)-ethanone] the melting point was 160 °C.

Compound `COc1ccc(-c2oc3ccc(CCO)cc3c2SC)cc1OC` [Compound 39a, 2-[2-(3,4-dimethoxy-phenyl)-3-methylsulfanyl-benzofuran-5-yl]-ethanol] has a melting point of 96 °C.

For `COc1ccc(-c2cc3cc(CCO)ccc3o2)cc1OC` [Compound 40a, 2-[2-(3,4-dimethoxy-phenyl)-benzofuran-5-yl]-ethanol], the melting point was 122 °C.
